Usually IC50 stands for the midpoint of a concentration-inhibition curve. By inhibition is commonly meant how much of the control response was suppressed.

One test has as its system HDAC. The following applies: literature value, cited from earlier work; for IC50: read-out: HDAC inhibitory activity (IC50 value); for HDAC inhibitory activity (order of magnitude): Nat. Rev. Drug Discov. 2002.
Test [1] deals with rabbit knee articular cartilage primary culture cells. The test is described as follows: PG destruction inhibitory activity in rabbit cartilage primary culture cell (stimulation with retinoic acid). The following applies: Oryctolagus cuniculus, 48 h, read-out: PG degradation inhibition (%).
Procedure: After a rabbit (Japanese white race, male, 1.0 to 1.5 kg) was killed under excessive anesthesia, the knee joint was taken out and the cartilage layer on the articular surface was abraded and cut finely. […] After 3 days, the medium was replaced by 200 μl of DMEM/10% FBS medium containing 50 μg/ml ascorbic acid (hereinafter referred to as ascorbic acid medium) and two days of culture was further repeated twice. Thereafter, the rabbit knee articular cartilage primary culture cells were cultured in 200 μl of the ascorbic acid medium containing Na2 35SO4 of a final concentration of 10 μCi/ml for 3 days to achieve labeling, followed by washing with 200 μl of the ascorbic acid medium three times and 1 day of culture in 200 μl of the ascorbic medium. The culture was stimulated with all-trans retinoic acid (manufactured by Sigma) of a final concentration of 1 μM. A culture supernatant after 48 hours was recovered in an each amount of 20 μl and radioactivity was measured using Topcount (manufactured by Packard). The test compound was added simultaneously with the start of the stimulation and a PG degradation inhibitory activity was calculated as percentage where a group to which retinoic acid was not added was defined as 100% and a group to which retinoic acid was added was defined as 0%.
Test [2] deals with rabbit cartilage primary culture cells. Put plainly: PG destruction inhibitory activity in rabbit cartilage primary culture cell (stimulation with IL-1). The following applies: Oryctolagus cuniculus, 48 h, read-out: PG degradation inhibition (%).
Procedure: After a rabbit (Japanese white race, male, 1.0 to 1.5 kg) was killed under excessive anesthesia, the knee joint was taken out and the cartilage layer on the articular surface was abraded and cut finely. […] After 3 days, the medium was replaced by 200 μl of DMEM/10% FBS medium containing 50 μg/ml ascorbic acid (hereinafter referred to as ascorbic acid medium) and two days of culture was further repeated twice. Thereafter, the rabbit knee articular cartilage primary culture cells were cultured in 200 μl of the ascorbic acid medium containing Na2 35SO4 of a final concentration of 10 μCi/ml for 3 days to achieve labeling, followed by washing with 200 μl of the ascorbic acid medium three times and 1 day of culture in 200 μl of the ascorbic medium.
They were stimulated with human IL-1β (manufactured by R&D System) of a final concentration of 10 ng/ml. A culture supernatant after 48 hours was recovered in an each amount of 20 μl and radioactivity was measured using Topcount (manufactured by Packard). The test compound was added simultaneously with the start of the stimulation and a PG degradation inhibitory activity was calculated as percentage where a group to which IL-1 was not added was defined as 100% and a group to which IL-1 was added was defined as 0%.
Test [3] deals with histone deacetylase fraction. Put plainly: HDAC inhibitory activity, [3H]acetylhistone and histone deacetylase fraction (method of Yoshida et al.). In kind it is biochemical. The following applies: at 30 nM.
Procedure: Specifically, the measurement can be conducted, using [^3H]acetylhistone and a histone deacetylase fraction prepared by the method described in the above reference, adding a test compound to a reaction solution containing [^3H]acetylhistone and DTT, mixing the histone deacetylase fraction after 1 hour of pre-incubation at room temperature, reacting them for 2 hours at room temperature, adding 1M hydrochloric acid and ethyl acetate thereto, and then measuring radioactivity in the ethyl acetate layer separated by centrifugation by a scintillation counter.

Counter-ions that a name gives are not always drawn.

With `Nc1ccccc1NC(=O)c1ccc(CNC(=O)OCc2cccnc2)cc1` [MS-27-275], in the test on HDAC, the IC50 was 2000 nM.
Consider `CCCC(=O)O` [butyric acid], for which the “HDAC inhibitory activity (order of magnitude)” value in the test on HDAC is “mM order”.
Turning to `CCC(=O)CCCCC[C@@H]1NC(=O)[C@H]2CCCCN2C(=O)[C@H]([C@@H](C)CC)NC(=O)[C@H](Cc2cn(OC)c3ccccc23)NC1=O` [Apicidin], in test [1], the inhibition at 0.03 µM is 25% and the inhibition at 0.3 µM was 92%.
As to `CCCC(CCC)C(=O)O` [Valproic acid], the “HDAC inhibitory activity (order of magnitude)” value with HDAC is listed as “mM order”.
Consider `CCCC(CCC)C(=O)O` [Valproic acid (Na salt), Valproic acid], for which, in test [1], the inhibition at 300 µM turned out to be 49%, the inhibition at 1000 µM came out at 46% and the inhibition at 3000 µM turned out to be 79%.
With `O=C(/C=C/c1ccc(CN(CCO)CCc2c[nH]c3ccccc23)cc1)NO` [NVP-LAQ824], in the test with HDAC, the IC50 is 30 nM. For the same compound, in test [1], the inhibition at 0.03 µM came to 26% and the inhibition at 0.3 µM was found to be 90%.
For the compound `CCCC(=O)O` [Butyric acid (Na salt), Butyric acid], the IC50 with HDAC was 280000 nM. Also, in test [1], the inhibition at 300 µM was found to be 27% and the inhibition at 3000 µM came to 93%. For the same compound, the inhibition at 5000 µM in test [2] stood at 78%.
Take `C/C=C1\NC(=O)[C@H]2CSSCC/C=C/[C@H](CC(=O)N[C@H](C(C)C)C(=O)N2)OC(=O)[C@H](C(C)C)NC1=O` [FK228]: in test [1], the inhibition at 0.01 µM stood at 39% and the inhibition at 0.1 µM is 97%. Further, in test [2], the inhibition at 0.03 µM amounted to 97%.
Take `CC1NC(=O)CC2/C=C/CCSSCC(NC1=O)C(=O)NC(C(C)C)C(O)CC(=O)O2` (centres unmarked) [Compound A]: the HDAC inhibition result in test [3] is “about 85%”. Also, in test [1], the inhibition at 0.001 µM was determined as 20%, the inhibition at 0.01 µM worked out at 51%, the inhibition at 0.1 µM was found to be 93% and the inhibition at 1 µM was found to be 98%. Besides, in test [2], the inhibition at 0.0003 µM is 6%, the inhibition at 0.003 µM stood at 39% and the inhibition at 0.03 µM was 61%.
Consider `CC(/C=C/C(=O)NO)=C\[C@@H](C)C(=O)c1ccc(N(C)C)cc1` [Trichostatin A], for which the concentration for half-maximal inhibition (IC50) in the test on HDAC is 2.1 nM. Besides, in test [1], the inhibition at 0.1 µM came to 40% and the inhibition at 1 µM is 58%.
